Measured values taken from publication PMC7026418, “The kinase polypharmacology landscape of clinical PARP inhibitors” (Scientific Reports, 2020).
Where two headings read alike, the source gives them in different places.

Assays:
Experiment in all cases: biochemical
Parameters in all cases: DiscoveRx KINOMEscan active site-directed competition binding; percent of control kinase bound to immobilised ligand
DDR2 = molecular target: T1, DDR2 (Homo sapiens, UniProt Q16832)
T1 sequence (Q16832 1-855): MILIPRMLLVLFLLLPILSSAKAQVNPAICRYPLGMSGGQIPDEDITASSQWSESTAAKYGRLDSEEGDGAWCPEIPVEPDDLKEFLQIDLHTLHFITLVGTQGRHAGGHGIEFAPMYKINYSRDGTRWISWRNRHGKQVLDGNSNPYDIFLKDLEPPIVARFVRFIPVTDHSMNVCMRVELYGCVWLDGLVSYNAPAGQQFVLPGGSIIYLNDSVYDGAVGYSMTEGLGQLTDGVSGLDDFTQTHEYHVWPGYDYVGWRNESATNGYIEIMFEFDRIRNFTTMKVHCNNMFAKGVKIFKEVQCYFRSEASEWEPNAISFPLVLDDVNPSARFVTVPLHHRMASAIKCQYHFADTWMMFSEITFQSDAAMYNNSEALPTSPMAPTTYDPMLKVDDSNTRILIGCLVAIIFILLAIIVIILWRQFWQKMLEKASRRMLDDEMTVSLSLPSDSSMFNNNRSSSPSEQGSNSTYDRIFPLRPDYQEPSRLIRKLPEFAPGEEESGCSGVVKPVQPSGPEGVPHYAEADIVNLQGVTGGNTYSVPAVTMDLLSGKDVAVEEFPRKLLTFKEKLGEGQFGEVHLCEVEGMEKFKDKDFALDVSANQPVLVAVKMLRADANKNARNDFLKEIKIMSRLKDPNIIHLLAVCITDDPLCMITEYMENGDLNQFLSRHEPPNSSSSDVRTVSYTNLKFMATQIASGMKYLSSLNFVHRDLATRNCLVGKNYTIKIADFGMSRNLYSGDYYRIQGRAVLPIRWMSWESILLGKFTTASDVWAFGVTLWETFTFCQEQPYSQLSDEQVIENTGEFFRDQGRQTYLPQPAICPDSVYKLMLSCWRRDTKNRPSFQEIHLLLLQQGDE

ERBB4 = ERBB4 (Homo sapiens, UniProt Q15303)
FES = FES (Homo sapiens, UniProt P07332)
JNK1 = molecular target: T2, JNK1 (Homo sapiens, UniProt P45983)
T2 construct: gene MAPK8

MELK = MELK (Homo sapiens, UniProt Q14680)
MST1 = molecular target: T3, MST1 (Homo sapiens, UniProt Q13043)
T3 construct: gene STK4
T3 sequence (Q13043 1-487): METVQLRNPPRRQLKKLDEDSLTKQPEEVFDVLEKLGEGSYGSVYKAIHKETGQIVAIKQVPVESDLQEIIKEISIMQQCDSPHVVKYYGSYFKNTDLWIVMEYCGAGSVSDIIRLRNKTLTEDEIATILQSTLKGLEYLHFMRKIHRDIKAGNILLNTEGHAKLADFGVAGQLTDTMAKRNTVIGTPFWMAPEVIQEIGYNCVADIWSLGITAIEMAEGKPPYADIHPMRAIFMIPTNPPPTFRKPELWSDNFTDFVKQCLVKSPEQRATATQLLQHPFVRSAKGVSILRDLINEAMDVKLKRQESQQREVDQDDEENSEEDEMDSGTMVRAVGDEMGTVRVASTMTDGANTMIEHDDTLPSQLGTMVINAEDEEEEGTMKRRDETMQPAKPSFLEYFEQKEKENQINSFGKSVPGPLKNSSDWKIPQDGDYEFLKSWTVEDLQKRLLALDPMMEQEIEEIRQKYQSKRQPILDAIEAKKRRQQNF

NEK11 = molecular target: T4, NEK11 (Homo sapiens, UniProt Q8NG66)
T4 sequence (Q8NG66 1-645): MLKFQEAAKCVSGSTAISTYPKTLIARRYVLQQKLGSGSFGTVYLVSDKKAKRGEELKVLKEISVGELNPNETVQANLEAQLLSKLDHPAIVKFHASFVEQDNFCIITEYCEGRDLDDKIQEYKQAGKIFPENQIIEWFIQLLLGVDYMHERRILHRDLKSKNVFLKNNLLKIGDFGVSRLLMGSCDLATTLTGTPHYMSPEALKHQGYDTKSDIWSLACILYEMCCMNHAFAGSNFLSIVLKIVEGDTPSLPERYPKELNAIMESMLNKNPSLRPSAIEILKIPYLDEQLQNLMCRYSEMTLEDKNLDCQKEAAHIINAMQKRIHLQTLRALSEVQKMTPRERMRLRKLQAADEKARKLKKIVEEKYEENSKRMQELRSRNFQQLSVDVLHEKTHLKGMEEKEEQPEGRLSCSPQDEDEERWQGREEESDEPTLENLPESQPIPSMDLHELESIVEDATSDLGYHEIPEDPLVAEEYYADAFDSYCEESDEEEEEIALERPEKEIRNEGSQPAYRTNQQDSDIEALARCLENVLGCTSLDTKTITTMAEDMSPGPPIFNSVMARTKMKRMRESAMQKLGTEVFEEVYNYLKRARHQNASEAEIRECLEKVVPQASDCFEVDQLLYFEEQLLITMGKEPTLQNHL

PLK1 = PLK1 (Homo sapiens, UniProt P53350)
RET = RET (Homo sapiens, UniProt P07949)
VPS34 = molecular target: T5, VPS34 (Homo sapiens, UniProt Q8NEB9)
T5 construct: gene PIK3C3

[1] = read-out: Talazoparib (BMN 673) / %Ctrl @ 10000nM
[2] = read-out: Olaparib / %Ctrl @ 10000nM
[3] = read-out: Rucaparib / %Ctrl @ 10000nM, binding competition, % of control
[4] = read-out: Niraparib (MK-4827) / %Ctrl @ 10000nM

ERBB4, sequence (Q15303 whole entry): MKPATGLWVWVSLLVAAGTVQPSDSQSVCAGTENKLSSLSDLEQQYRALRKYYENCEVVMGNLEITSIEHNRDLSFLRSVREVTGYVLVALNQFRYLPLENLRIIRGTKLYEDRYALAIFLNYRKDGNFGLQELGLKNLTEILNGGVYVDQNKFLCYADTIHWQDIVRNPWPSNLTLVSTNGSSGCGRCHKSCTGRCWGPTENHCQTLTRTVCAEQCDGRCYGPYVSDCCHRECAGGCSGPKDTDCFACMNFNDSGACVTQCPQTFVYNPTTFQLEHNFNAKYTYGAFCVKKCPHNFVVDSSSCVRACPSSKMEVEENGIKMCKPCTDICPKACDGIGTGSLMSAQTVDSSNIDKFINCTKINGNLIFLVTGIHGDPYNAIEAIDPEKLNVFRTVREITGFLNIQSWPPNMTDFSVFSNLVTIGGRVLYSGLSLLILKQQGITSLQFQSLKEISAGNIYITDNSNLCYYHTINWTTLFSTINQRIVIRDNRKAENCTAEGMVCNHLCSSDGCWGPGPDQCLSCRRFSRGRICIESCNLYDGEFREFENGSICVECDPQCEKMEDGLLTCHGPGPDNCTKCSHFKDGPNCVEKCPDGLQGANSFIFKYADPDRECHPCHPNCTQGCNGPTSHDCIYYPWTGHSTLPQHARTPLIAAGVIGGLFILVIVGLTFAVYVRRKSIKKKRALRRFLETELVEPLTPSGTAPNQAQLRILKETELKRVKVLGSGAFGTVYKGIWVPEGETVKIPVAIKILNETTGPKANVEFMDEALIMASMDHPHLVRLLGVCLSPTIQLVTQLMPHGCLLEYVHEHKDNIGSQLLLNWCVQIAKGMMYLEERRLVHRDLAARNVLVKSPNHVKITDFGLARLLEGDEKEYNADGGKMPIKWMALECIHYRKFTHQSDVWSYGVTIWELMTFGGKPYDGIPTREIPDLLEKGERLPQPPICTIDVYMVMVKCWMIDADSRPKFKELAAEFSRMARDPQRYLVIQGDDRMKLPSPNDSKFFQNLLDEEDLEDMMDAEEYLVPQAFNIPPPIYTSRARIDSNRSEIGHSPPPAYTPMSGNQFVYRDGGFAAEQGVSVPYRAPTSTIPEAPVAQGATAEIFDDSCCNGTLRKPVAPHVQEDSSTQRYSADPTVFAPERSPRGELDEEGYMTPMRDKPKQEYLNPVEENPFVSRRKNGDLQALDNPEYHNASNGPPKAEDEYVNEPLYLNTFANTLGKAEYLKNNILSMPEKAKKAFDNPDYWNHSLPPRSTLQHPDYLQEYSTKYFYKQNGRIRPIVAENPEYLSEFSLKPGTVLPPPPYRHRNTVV
T2 sequence (P45983 whole entry): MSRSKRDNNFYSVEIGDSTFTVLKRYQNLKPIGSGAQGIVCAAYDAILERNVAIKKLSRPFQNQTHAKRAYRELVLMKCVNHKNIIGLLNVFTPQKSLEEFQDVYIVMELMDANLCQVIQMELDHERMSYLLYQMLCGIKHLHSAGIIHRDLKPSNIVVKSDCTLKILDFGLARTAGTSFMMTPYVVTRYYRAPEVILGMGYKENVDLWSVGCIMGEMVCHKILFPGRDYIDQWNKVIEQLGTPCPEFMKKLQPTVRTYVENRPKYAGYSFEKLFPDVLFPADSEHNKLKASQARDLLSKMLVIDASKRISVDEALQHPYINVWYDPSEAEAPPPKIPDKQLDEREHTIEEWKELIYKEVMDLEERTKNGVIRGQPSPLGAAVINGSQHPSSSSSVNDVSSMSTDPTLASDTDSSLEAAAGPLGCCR
MELK, sequence (Q14680 whole entry): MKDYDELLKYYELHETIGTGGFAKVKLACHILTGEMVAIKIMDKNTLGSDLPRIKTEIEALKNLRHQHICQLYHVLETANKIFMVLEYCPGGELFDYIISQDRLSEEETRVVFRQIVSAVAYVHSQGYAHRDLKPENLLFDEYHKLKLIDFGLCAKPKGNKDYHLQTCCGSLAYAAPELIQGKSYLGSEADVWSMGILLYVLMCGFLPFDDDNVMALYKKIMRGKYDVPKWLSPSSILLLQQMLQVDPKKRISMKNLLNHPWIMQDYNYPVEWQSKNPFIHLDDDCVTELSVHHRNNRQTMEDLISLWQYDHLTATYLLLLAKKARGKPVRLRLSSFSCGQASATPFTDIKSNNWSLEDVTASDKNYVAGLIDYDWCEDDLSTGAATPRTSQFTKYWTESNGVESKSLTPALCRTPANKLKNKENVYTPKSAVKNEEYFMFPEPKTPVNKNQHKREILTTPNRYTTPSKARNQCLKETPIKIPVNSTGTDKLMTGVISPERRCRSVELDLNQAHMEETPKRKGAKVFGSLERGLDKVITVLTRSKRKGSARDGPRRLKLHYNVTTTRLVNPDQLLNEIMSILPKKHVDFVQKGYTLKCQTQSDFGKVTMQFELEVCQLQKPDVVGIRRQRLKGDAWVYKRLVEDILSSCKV
T5 sequence (Q8NEB9 whole entry): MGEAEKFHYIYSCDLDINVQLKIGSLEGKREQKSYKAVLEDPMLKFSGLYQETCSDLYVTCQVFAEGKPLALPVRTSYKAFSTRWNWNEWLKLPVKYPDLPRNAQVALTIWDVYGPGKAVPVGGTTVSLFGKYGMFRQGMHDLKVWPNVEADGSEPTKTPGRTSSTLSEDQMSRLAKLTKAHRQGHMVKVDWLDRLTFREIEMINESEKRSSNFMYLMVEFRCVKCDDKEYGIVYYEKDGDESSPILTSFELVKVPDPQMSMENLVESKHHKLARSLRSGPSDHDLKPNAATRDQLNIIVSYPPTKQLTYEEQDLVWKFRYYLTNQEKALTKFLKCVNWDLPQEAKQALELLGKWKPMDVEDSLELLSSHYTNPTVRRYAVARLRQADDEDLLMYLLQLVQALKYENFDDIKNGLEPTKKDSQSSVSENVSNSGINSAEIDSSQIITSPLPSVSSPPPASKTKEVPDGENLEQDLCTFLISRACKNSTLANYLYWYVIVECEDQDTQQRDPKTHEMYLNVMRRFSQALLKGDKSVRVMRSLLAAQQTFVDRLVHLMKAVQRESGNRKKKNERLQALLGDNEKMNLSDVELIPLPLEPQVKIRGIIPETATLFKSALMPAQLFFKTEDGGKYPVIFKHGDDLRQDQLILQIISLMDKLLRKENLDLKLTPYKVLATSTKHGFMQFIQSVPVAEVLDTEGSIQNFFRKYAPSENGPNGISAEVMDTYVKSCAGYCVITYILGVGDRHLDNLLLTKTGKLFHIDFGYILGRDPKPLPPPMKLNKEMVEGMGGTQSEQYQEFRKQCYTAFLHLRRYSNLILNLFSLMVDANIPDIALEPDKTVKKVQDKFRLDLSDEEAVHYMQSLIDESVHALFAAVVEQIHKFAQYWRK
PLK1, sequence (P53350 whole entry): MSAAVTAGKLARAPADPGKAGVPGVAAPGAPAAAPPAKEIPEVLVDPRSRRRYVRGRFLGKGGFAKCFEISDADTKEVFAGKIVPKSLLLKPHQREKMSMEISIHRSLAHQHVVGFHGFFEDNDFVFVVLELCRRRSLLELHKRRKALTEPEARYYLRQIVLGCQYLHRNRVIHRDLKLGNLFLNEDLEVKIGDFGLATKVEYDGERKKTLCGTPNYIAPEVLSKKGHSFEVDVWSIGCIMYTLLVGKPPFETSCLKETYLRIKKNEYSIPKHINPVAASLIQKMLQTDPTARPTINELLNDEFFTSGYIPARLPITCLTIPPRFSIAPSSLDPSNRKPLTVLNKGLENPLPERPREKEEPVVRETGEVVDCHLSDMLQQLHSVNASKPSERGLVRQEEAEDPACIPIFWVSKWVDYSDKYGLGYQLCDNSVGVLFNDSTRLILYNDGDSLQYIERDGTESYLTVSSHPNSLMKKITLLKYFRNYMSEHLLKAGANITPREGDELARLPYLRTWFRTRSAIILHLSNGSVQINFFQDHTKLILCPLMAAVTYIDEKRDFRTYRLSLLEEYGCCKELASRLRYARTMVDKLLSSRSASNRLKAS
RET, sequence (P07949 whole entry): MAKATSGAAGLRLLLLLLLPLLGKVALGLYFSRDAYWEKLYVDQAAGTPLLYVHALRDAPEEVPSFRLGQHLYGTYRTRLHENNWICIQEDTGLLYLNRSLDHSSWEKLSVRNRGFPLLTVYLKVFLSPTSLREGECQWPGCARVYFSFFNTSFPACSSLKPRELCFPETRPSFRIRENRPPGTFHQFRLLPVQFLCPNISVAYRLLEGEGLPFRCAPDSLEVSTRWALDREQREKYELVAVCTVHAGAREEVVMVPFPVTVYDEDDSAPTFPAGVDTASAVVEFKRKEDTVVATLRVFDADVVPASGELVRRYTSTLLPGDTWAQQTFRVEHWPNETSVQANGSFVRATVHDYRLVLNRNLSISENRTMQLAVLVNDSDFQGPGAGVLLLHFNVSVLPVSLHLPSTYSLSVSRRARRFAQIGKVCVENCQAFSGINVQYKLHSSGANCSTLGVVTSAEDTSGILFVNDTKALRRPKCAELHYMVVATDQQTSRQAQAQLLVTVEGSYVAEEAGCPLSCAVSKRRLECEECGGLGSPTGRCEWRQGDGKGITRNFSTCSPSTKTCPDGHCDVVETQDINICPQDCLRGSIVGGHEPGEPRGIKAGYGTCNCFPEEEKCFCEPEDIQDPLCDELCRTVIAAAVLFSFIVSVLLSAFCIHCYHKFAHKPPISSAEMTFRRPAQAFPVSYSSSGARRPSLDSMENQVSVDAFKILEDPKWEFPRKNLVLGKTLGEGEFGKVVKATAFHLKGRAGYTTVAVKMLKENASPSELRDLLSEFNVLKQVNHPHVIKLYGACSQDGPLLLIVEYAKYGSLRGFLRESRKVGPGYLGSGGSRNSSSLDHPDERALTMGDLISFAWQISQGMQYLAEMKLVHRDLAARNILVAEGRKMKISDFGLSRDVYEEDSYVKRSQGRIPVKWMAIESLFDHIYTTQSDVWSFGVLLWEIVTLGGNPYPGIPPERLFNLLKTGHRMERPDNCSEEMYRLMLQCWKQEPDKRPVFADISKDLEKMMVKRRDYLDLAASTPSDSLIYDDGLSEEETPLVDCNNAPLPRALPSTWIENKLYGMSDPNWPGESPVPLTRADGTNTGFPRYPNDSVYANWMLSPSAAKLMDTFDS

## Cn1ncnc1[C@H]1c2n[nH]c(=O)c3cc(F)cc(c23)N[C@@H]1c1ccc(F)cc1 [Talazoparib]
DDR2; [1]
  percent of control binding at 10 µM: 100%
ERBB4; [1]
  percent of control binding at 10 µM: 91%
FES; [1]
  percent of control binding at 10 µM: 98%
JNK1; [1]
  percent of control binding at 10 µM: 79%
MELK; [1]
  percent of control binding at 10 µM: 94%
MST1; [1]
  percent of control binding at 10 µM: 100%
NEK11; [1]
  percent of control binding at 10 µM: 100%
PLK1; [1]
  percent of control binding at 10 µM: 89%
RET; [1]
  percent of control binding at 10 µM: 100%
VPS34; [1]
  percent of control binding at 10 µM: 100%

## O=C(c1cc(Cc2n[nH]c(=O)c3ccccc23)ccc1F)N1CCN(C(=O)C2CC2)CC1 [Olaparib]
DDR2; [2]
  percent of control binding at 10 µM: 92%
ERBB4; [2]
  percent of control binding at 10 µM: 89%
FES; [2]
  percent of control binding at 10 µM: 92%
JNK1; [2]
  percent of control binding at 10 µM: 98%
MELK; [2]
  percent of control binding at 10 µM: 90%
MST1; [2]
  percent of control binding at 10 µM: 97%
NEK11; [2]
  percent of control binding at 10 µM: 82%
PLK1; [2]
  percent of control binding at 10 µM: 85%
RET; [2]
  percent of control binding at 10 µM: 100%
VPS34; [2]
  percent of control binding at 10 µM: 90%

## CNCc1ccc(-c2[nH]c3cc(F)cc4c3c2CCNC4=O)cc1 [Rucaparib]
DDR2; [3]
  percent of control binding at 10 µM: 89%
ERBB4; [3]
  percent of control binding at 10 µM: 89%
FES; [3]
  percent of control binding at 10 µM: 94%
JNK1; [3]
  percent of control binding at 10 µM: 65%
MELK; [3]
  percent of control binding at 10 µM: 76%
MST1; [3]
  percent of control binding at 10 µM: 85%
NEK11; [3]
  percent of control binding at 10 µM: 91%
PLK1; [3]
  percent of control binding at 10 µM: 66%
RET; [3]
  percent of control binding at 10 µM: 98%
VPS34; [3]
  percent of control binding at 10 µM: 80%

## NC(=O)c1cccc2cn(-c3ccc([C@@H]4CCCNC4)cc3)nc12 [Niraparib]
DDR2; [4]
  percent of control binding at 10 µM: 90%
ERBB4; [4]
  percent of control binding at 10 µM: 99%
FES; [4]
  percent of control binding at 10 µM: 83%
JNK1; [4]
  percent of control binding at 10 µM: 85%
MELK; [4]
  percent of control binding at 10 µM: 70%
MST1; [4]
  percent of control binding at 10 µM: 87%
NEK11; [4]
  percent of control binding at 10 µM: 99%
PLK1; [4]
  percent of control binding at 10 µM: 100%
RET; [4]
  percent of control binding at 10 µM: 83%
VPS34; [4]
  percent of control binding at 10 µM: 14%
